# Literature values, collected in patent publication US12116550B2, “Process of making a liquid conditioning composition” (The Procter & Gamble Company, priority 2020, dated 2024).
# Details: nonionic surfactants of Table A, value reported for the trade product
row,Reported HLB,Substance
1,4.7,Sorbitan isostearate [Span 120]
2,4.3,Sorbitan monooleate [Span 80]
3,6.7,Sorbitan monopalmitate [Span 40]
4,4.7,Sorbitan monostearate [Span 60]
